The values that follow come from US12365946B2, “Compositions and methods for the diagnosis and treatment of lymphatic system disorders” (THE CHILDREN'S HOSPITAL OF PHILADELPHIA, priority 2018, dated 2025).

What is called IC50 is the midpoint of a concentration-inhibition curve.

Experiment [1] deals with T1, mTOR (Homo sapiens, UniProt P42345). The following applies: cell-free assays; cited from earlier work.
Another experiment has as its system autophagy. The following applies: cited from earlier work.
Experiment [2] concerns zebrafish larvae overexpressing KRAS-G12D mutant in lymphatics. The experiment can be described thus: Zebrafish model overexpressing KRAS-G12D in lymphatics. The class given is in vivo. The settings on record: FIG. 19.
Experiment [3] has as its system HDLECs expressing ARAF mutation S214P. In words: Immunofluorescence staining and western blotting of HDLECs expressing ARAF-S214P. The class given is cell-based, human. The settings on record: for biochemical and morphological reversal of the effects induced by the ARAF mutation / cell morphological differences induced by ARAF-S214P: HDLECs; for VE-cadherin accumulation at the cell membrane / levels of pERK: HDLECs expressing ARAF-S214P. The text has this:
We developed a cellular model to better understand and study the effects of potential ERK-activating mutations was developed by using primary lymphatic endothelial cells instead of established cell lines to capture the characteristics of mutations in the disease relevant cell type. We have retrovirally expressed wild-type and mutant versions of proteins in the human dermal lymphatic endothelial cells (HDLECs).
The ARAF sequence, from pCDNA3.1-F2S2-ARAF-WT or -S214P constructs as previously indicated, was cut with BamHI/XhoI and introduced into the BglII/XhoI sites of a modified version of the pMSCV plasmid that contains aminoterminal FLAG and HA tags. Viral production was performed using Fugene, with 8 μg of total DNA (pMSCV-ARAF-WT or -S214P together with envelope and packaging plasmids) and 18 μl of the transfection reagent in HEK293T. After 72 h, viral supernatant was collected and filtered. HDLECs were infected by replacing the cell culture medium with the viral supernatant, supplemented with 8 μg ml^−1 Polybrene and filtered through a 0.45 μm filter. Cells were spinfected at 650 g for 90 min, and subsequently cultured for 6 h at which point the viral supernatant was replaced by standard culture medium. Transduced HDLECs were cultured for 48 h before use in experiments. Transduction efficiencies observed by HA staining were between 40% and 60%.
Round (12 mm) coverslips (VWR) were coated with 0.1% gelatin in water for 10 min in 24-well plates (Corning), and then air-dried for 15 min. […] Cells were washed in warm serum-free Dulbecco's modified Eagle's medium and fixed in 4% paraformaldehyde. Fixed cells were washed twice with PBS and twice with 0.1% BSA in PBS. Cells were permeablized and blocked by incubation with 10% normal donkey serum (Jackson Immunoresearch) and 0.3% Triton X-100 (Sigma Aldrich) in PBS. VE-cadherin antibody (Thermo Fisher Scientific) was diluted (final concentration: 2 μg ml^−1) in 0.01% normal donkey serum, 0.1% BSA and 0.3% Triton X-100 in PBS, and staining was performed for 1 h. Coverslips were washed twice with 0.1% BSA in PBS. Goat-anti-rabbit Alexa546 (Thermo Fisher Scientific; final concentration: 8 μg ml-1) and phalloidin Alexa350 (Thermo Fisher Scientific; final concentration: 5 units ml-1) were diluted in 0.01% normal donkey serum, 0.1% BSA and 0.3% Triton X-100 in PBS, and staining was performed for 1 h. When used, HA-Tag (6E2) mouse antibody (cat. no. 2367, Cell Signaling Technology) was diluted 1:100 in 0.1% BSA and 0.3% Triton X-100 in PBS, and staining was performed for 1 h. Coverslips were washed twice with 0.1% BSA in PBS and twice with PBS. Coverslips were dipped in water to remove residual salts, and mounted to slides using Prolong Gold antifade reagent (Thermo Fisher Scientific). Image acquisition was performed on a Leica DM6000 motorized upright microscope with a Photometrics HQ2 high-resolution monochrome CCD (charge-coupled device) camera using LAS AF software (Leica Microsystems). Z-stacks were acquired at ×10 magnification. Images were further processed in the Fiji software package42. Brightness and contrast adjustments were made. Identical brightness and contrast settings were applied to all images. Fluorescence values were measured in regions of interest (ROIs) drawn to contain entire individual cells, or in ROIs drawn to contain the entire cell body but exclude the cell-cell junction. From those measured values, a value for the plasma membrane was derived (total cell-intracellular), and the ratio of plasma membrane to intracellular values was derived and plotted. Additionally, the length and width of cells were measured with the line tool and ROI manager. For both analyses, five clearly ARAF-expressing cells, as determined by HA staining, were analyzed per ×10 field. Five ×10 fields were acquired per condition per experiment. Experiments were conducted with cells from 3 independent thaws and transductions of HDLECs, for a total of 75 cells per condition. […]
A general note: In western blotting, separated proteins are transferred to a membrane and probed.

Another experiment deals with ERK1/2 phosphorylation. The settings on record: more potent than CI-1040; cited from earlier work.
For experiment [4], the system named is ERK activation/phosphorylation in cells expressing WT and mutant BRAF or PTPN11. In words: pERK levels in Ea.hy926 cells expressing WT and mutant BRAF or PTPN11, MEK inhibitor titration. The settings on record: cells expressing WT and mutant BRAF or PTPN11, FIGS. 4 and 5. The class given is cell-based, human. The source says: A cellular model for studying the effects of potential ERK-activating mutations was developed. We have retrovirally expressed wild-type and mutant versions of proteins in the cell line Ea.hy926. The Ea.hy926 cell line is a fusion of human umbilical vein endothelial cells with a […] cell line. It is immortalized and retains some characteristics of endothelial cells.
In an effort to identify inhibitors with greater therapeutic efficacy, we have treated cells expressing WT and mutant BRAF or PTPN11 with various MEK inhibitors. […] BRAF F486S consistently induces ERK activation over WT levels, although the specific fold increase varies from gel to gel.

Another experiment has as its system MM cell lines. The following applies: units printed inside the range; cited from earlier work.
The subject of experiment [5] is Abl1, AKT3, c-RAF, CamK1, CDK2, c-Met. The settings on record: cited from earlier work.
Experiment [6] concerns the target immunophilin FKBP12 (FK506 binding protein) (Homo sapiens, UniProt P62942). The settings on record: by binding to FKBP12; cited from earlier work.
In experiment [7] the target is T1, mTOR. The settings on record: Table 2 grade symbols (+ to ++++, √); key not given; cited from earlier work.

Chain of immunophilin FKBP12 (FK506 binding protein) (P62942 whole entry): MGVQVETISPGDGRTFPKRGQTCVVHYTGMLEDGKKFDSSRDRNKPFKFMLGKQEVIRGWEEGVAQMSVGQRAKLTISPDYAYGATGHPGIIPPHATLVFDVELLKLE

In the case of `CO[C@H]1C[C@@H]2CC[C@@H](C)[C@@](O)(O2)C(=O)C(=O)N2CCCC[C@H]2C(=O)O[C@H]([C@H](C)C[C@@H]2CC[C@@H](OCCO)[C@H](OC)C2)CC(=O)[C@H](C)/C=C(\C)[C@@H](O)[C@@H](OC)C(=O)[C@H](C)C[C@H](C)/C=C/C=C/C=C/1C` [Everolimus (RAD001), Everolimus], the IC50 at mTOR [1] was 1.6 to 2.4 nM.
Consider `O=[N+]([O-])c1ccc(Nc2nc(N3CCOCC3)nc(N3CCOCC3)n2)cc1` [MHY1485], for which, in the experiment with autophagy, the inhibits autophagy entry was “also potently inhibits autophagy”.
Take `O=C(NOC[C@H](O)CO)c1ccc(F)c(F)c1Nc1ccc(I)cc1F` [PD0325901]: in experiment [2], the disorganized lymphatic branching result was “improvement” and the edema result is recorded as “decrease”. For the same compound, in experiment [3], the “biochemical and morphological reversal of the effects induced by the ARAF mutation” value (“biochemical and morphological reversal” below) is recorded as “reversal”; the “cell morphological differences induced by ARAF-S214P” value was “rescued”; the “VE-cadherin accumulation at the cell membrane” value (from here on “VE-cadherin accumulation”) is on record as “increased”; the “levels of pERK” value is given as “reduced”. Further, the “potency relative to CI-1040 on phosphorylation of ERK1 and ERK2” value in the experiment on ERK1/2 phosphorylation was “assays, roughly 500-fold more”. The “pERK levels, titration curves” value in [4] was “reducing pERK levels in cells in a dose dependent manner”.
As for `O=C(NC[C@H](O)CO)c1ccncc1Nc1ccc(I)cc1F` [Pimasertib (AS-703026), Pimasertib], the IC50 in the experiment with MM cell lines is 5 to 2000 nM. In [2], the disorganized lymphatic branching result is “improvement” and the edema entry was “decrease”. Also, in experiment [3], the “biochemical and morphological reversal” value is recorded as “reversal”; the “cell morphological differences induced by ARAF-S214P” value is recorded as “rescued”; the “VE-cadherin accumulation” value is “increased”; the “levels of pERK” value is reported as “reduced”. For the same compound, the “pERK levels, titration curves” value in [4] is listed as “reducing pERK levels in cells in a dose dependent manner”.
As for `Cn1c(=O)c(F)c(Nc2ccc(I)cc2F)c2c(=O)n(C[C@@H](O)CO)cnc21` [TAK-733], the “activity to Abl1, AKT3, c-RAF, CamK1, CDK2, c-Met, etc.” value in [5] was “inactive to Abl1, AKT3, c-RAF,”. Besides, in [2], the disorganized lymphatic branching result is reported as “improvement” and the edema entry was “decrease”. Further, in experiment [3], the “biochemical and morphological reversal” value is “reversal”; the “cell morphological differences induced by ARAF-S214P” value is listed as “rescued”; the “VE-cadherin accumulation” value was “increased”; the “levels of pERK” value is reported as “reduced”.
Take `C=CC[C@@H]1/C=C(\C)C[C@H](C)C[C@H](OC)[C@H]2O[C@@](O)(C(=O)C(=O)N3CCCC[C@H]3C(=O)O[C@H](/C(C)=C/[C@@H]3CC[C@@H](O)[C@H](OC)C3)[C@H](C)[C@@H](O)CC1=O)[C@H](C)C[C@@H]2OC` [Tacrolimus (FK506), Tacrolimus]: in experiment [6], the “peptidyl-prolyl isomerase activity in T cells” value is reported as “reduces peptidyl-prolyl isomerase”. Moreover, the mTOR result on mTOR [7] is reported as “√”.
